Test results from paper PMC8518806 (2021).

Key:
[1] = system: BeCA (RNA8-2) (RNA, aptamer) GGAGGUACGUGGACUGCUUAUGCAGUAGGAAGGCCUCC; test: fluorescence turn-on titration (NIR); conditions: 125 mM KCl, 5 mM MgCl2; 20 mM Hepes pH 7.4; 100 nM BC6
[2] = system: M2 (RNA, aptamer) GGAGGGACGUGGACUGCUUAUGCAGUAGGAAGCCCUCC; test: fluorescence turn-on titration; conditions: 125 mM KCl, 5 mM MgCl2; 20 mM Hepes pH 7.4; 100 nM BC1-DN
[3] = system: M4 (RNA, aptamer) GGAGGUACGUGGACUGCUUAUGCAGUAGGAAGCCCUCC; test: fluorescence turn-on titration; conditions: 125 mM KCl, 5 mM MgCl2; 20 mM Hepes pH 7.4; 100 nM BC1-DN
[4] = system: M7 (RNA, aptamer) GGAGUACGUGGACUGCUUAUGCAGUAGGAAGGCUCC; test: fluorescence turn-on titration; conditions: 125 mM KCl, 5 mM MgCl2; 20 mM Hepes pH 7.4; 100 nM BC1-DN
[5] = system: M3 (RNA, aptamer) GGAGGUACGUGGACUGCUUAUGCAGUAGGAAGACCUCC; test: fluorescence turn-on titration; conditions: 125 mM KCl, 5 mM MgCl2; 20 mM Hepes pH 7.4; 100 nM BC1-DN
[6] = system: M10 (RNA, aptamer) GGAGGUACGUGGACUGCUUAUGCAGUAGGAAGCCUCC; test: fluorescence turn-on titration; conditions: 125 mM KCl, 5 mM MgCl2; 20 mM Hepes pH 7.4; 100 nM BC1-DN
[7] = system: RNA8-3 (RNA, aptamer) GGAGGUACGUGGAUAGGAAGGCCUCC; test: fluorescence turn-on titration; conditions: 125 mM KCl, 5 mM MgCl2; 20 mM Hepes pH 7.4; 100 nM BC1-DN
[8] = system: M1 (RNA, aptamer) GGAGGCACGUGGACUGCUUAUGCAGUAGGAAGGCCUCC; test: fluorescence turn-on titration; conditions: 125 mM KCl, 5 mM MgCl2; 20 mM Hepes pH 7.4; 100 nM BC1-DN
[9] = system: M8 (RNA, aptamer) GGAGGUCGUGGACUGCUUAUGCAGUAGGAAGGCCUCC; test: fluorescence turn-on titration; conditions: 125 mM KCl, 5 mM MgCl2; 20 mM Hepes pH 7.4; 100 nM BC1-DN
[10] = system: M6 (RNA, aptamer) GGAAAUACGUGGACUGCUUAUGCAGUAGGAAGGUUUCC; test: fluorescence turn-on titration; conditions: 125 mM KCl, 5 mM MgCl2; 20 mM Hepes pH 7.4; 100 nM BC1-DN
[11] = system: BeCA (RNA8-2) (RNA, aptamer) GGAGGUACGUGGACUGCUUAUGCAGUAGGAAGGCCUCC; test: fluorescence turn-on titration; conditions: 125 mM KCl, 5 mM MgCl2; 20 mM Hepes pH 7.4; 100 nM BC1-DN
[12] = system: M12 (RNA, aptamer) GGAGGUACGUGGACUGCUUCGGCAGUAGGAAGGCCUCC; test: fluorescence turn-on titration; conditions: 125 mM KCl, 5 mM MgCl2; 20 mM Hepes pH 7.4; 100 nM BC1-DN
[13] = system: M5 (RNA, aptamer) GGAGGUACGUGGACUGCUUAUGCAGUAGGAAGUCCUCC; test: fluorescence turn-on titration; conditions: 125 mM KCl, 5 mM MgCl2; 20 mM Hepes pH 7.4; 100 nM BC1-DN
[14] = system: M11 (RNA, aptamer) GGAGGUACGUGGGCUGCUUAUGCAGCAGGAAGGCCUCC; test: fluorescence turn-on titration; conditions: 125 mM KCl, 5 mM MgCl2; 20 mM Hepes pH 7.4; 100 nM BC1-DN
[15] = system: RNA8-1 (RNA, aptamer) GGAGGCAGGGCUUAGUUGAGGUACGUGGACUGCUUAUGCAGUAGGAAGGCCUCACUUUUCCGCCGUUGGCACCAC; test: fluorescence turn-on titration; conditions: 125 mM KCl, 5 mM MgCl2; 20 mM Hepes pH 7.4; 100 nM BC1-DN
[16] = system: M9 (RNA, aptamer) GGAGGUAGUGGACUGCUUAUGCAGUAGGAAGGCCUCC; test: fluorescence turn-on titration; conditions: 125 mM KCl, 5 mM MgCl2; 20 mM Hepes pH 7.4; 100 nM BC1-DN

Row | KD [1] | KD [2] | KD [3] | KD [4] | KD [5] | KD [6] | KD [7] | KD [8] | KD [9] | KD [10] | KD [11] | KD [12] | KD [13] | KD [14] | KD [15] | KD [16] | SMILES
1 | 220 nM | – | – | – | – | – | – | – | – | – | – | – | – | – | – | – | CN(C)c1ccc2c(c1)OC(c1cc3ccc(N(C)C)cc3oc1=O)=CC21c2ccccc2C(=O)N1C#N (stereo not shown)
2 | – | 1700 ± 480 nM | 4600 ± 1400 nM | 200 ± 30 nM | 620 ± 190 nM | 770 ± 180 nM | > 10000 nM | 1100 ± 470 nM | 1100 ± 440 nM | 350 ± 50 nM | 230 nM | 330 ± 120 nM | 1300 ± 270 nM | 270 ± 80 nM | 900 ± 200 nM | 250 ± 60 nM | CN(C)c1ccc2cc(-c3cc(-c4ccc(C(=O)NCCOCCOCCNc5ccc([N+](=O)[O-])cc5[N+](=O)[O-])cc4C(=O)[O-])c4ccc(N(C)C)cc4[o+]3)c(=O)oc2c1
